Measurements as given in PubChem BioAssay (NCI).
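Cultured in 96-well plates, cells were exposed to test compound for 48 hours across five concentrations. GI50 = concentration required for 50% inhibition of growth. The concentration for full growth arrest is given as TGI.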

What was measured:
Test in all cases: NCI tumour cell line growth inhibition, 48 h
UO-31 renal = system: UO-31 renal
HOP-62 NSCLC = system: HOP-62 NSCLC
NCI-H226 lung = system: NCI-H226 lung
CCRF-CEM leukemia = system: CCRF-CEM leukemia
DU-145 prostate = system: DU-145 prostate
NCI-H23 lung = system: NCI-H23 lung
KM12 colon = system: KM12 colon
HCT-15 colon = system: HCT-15 colon
A498 renal = system: A498 renal
SK-MEL-28 melanoma = system: SK-MEL-28 melanoma
OVCAR-3 ovarian = system: OVCAR-3 ovarian
NCI-H460 lung = system: NCI-H460 lung
MOLT-4 leukemia = system: MOLT-4 leukemia
HCT-116 colon = system: HCT-116 colon
OVCAR-5 ovarian = system: OVCAR-5 ovarian
UACC-257 melanoma = system: UACC-257 melanoma
IGROV1 ovarian = system: IGROV1 ovarian
SK-MEL-5 melanoma = system: SK-MEL-5 melanoma
OVCAR-4 ovarian = system: OVCAR-4 ovarian
M14 melanoma = system: M14 melanoma
MALME-3M melanoma = system: MALME-3M melanoma
SK-OV-3 ovarian = system: SK-OV-3 ovarian
SK-MEL-2 melanoma = system: SK-MEL-2 melanoma
T-47D breast = system: T-47D breast
MCF7 breast = system: MCF7 breast
MDA-MB-231 breast = system: MDA-MB-231 breast
SF-539 CNS = system: SF-539 CNS
UACC-62 melanoma = system: UACC-62 melanoma
HOP-92 NSCLC = system: HOP-92 NSCLC
SR leukemia = system: SR leukemia
NCI-H522 lung = system: NCI-H522 lung
SF-268 CNS = system: SF-268 CNS
LOX IMVI melanoma = system: LOX IMVI melanoma
BT-549 breast = system: BT-549 breast
NCI/ADR-RES ovarian = system: NCI/ADR-RES ovarian
U251 CNS = system: U251 CNS
K-562 leukemia = system: K-562 leukemia
PC-3 prostate = system: PC-3 prostate
OVCAR-8 ovarian = system: OVCAR-8 ovarian
RXF 393 renal = system: RXF 393 renal
RPMI-8226 leukemia = system: RPMI-8226 leukemia
TK-10 renal = system: TK-10 renal
COLO 205 colon = system: COLO 205 colon
ACHN renal = system: ACHN renal
HS 578T breast = system: HS 578T breast
CAKI-1 renal = system: CAKI-1 renal
SW-620 colon = system: SW-620 colon
SF-295 CNS = system: SF-295 CNS
HCC-2998 colon = system: HCC-2998 colon
786-0 renal = system: 786-0 renal
MDA-MB-435 = system: MDA-MB-435
SNB-19 CNS = system: SNB-19 CNS
SN12C renal = system: SN12C renal
A549 NSCLC = system: A549 NSCLC
SNB-75 CNS = system: SNB-75 CNS
EKVX NSCLC = system: EKVX NSCLC
HT29 colon = system: HT29 colon
HL-60(TB) leukemia = system: HL-60(TB) leukemia

SMILES: CN(C)c1cccc2[nH]c(-c3[nH]ncc3Nc3ccnc(N)n3)nc12
- GI50 (UO-31 renal): < 14.2 nM
- TGI (UO-31 renal): 276 nM
- GI50 (HOP-62 NSCLC): 27.3 nM
- TGI (HOP-62 NSCLC): 629 nM
- GI50 (NCI-H226 lung): < 15.9 nM
- TGI (NCI-H226 lung): 193 nM
- GI50 (CCRF-CEM leukemia): < 11.8 nM
- TGI (CCRF-CEM leukemia): 4480 nM
- GI50 (DU-145 prostate): 17.5 nM
- TGI (DU-145 prostate): 1030 nM
- GI50 (NCI-H23 lung): 23.2 nM
- TGI (NCI-H23 lung): 217 nM
- GI50 (KM12 colon): 24 nM
- TGI (KM12 colon): 283 nM
- GI50 (HCT-15 colon): 14.4 nM
- TGI (HCT-15 colon): 1030 nM
- GI50 (A498 renal): 13 nM
- TGI (A498 renal): 37 nM
- GI50 (SK-MEL-28 melanoma): 18.3 nM
- TGI (SK-MEL-28 melanoma): 452 nM
- GI50 (OVCAR-3 ovarian): < 12.1 nM
- TGI (OVCAR-3 ovarian): 1090 nM
- GI50 (NCI-H460 lung): 54 nM
- TGI (NCI-H460 lung): 1050 nM
- GI50 (MOLT-4 leukemia): 25.8 nM
- TGI (MOLT-4 leukemia): 10200 nM
- GI50 (HCT-116 colon): < 10 nM
- TGI (HCT-116 colon): 1090 nM
- GI50 (OVCAR-5 ovarian): 23 nM
- TGI (OVCAR-5 ovarian): 1900 nM
- GI50 (UACC-257 melanoma): 31.8 nM
- TGI (UACC-257 melanoma): 324 nM
- GI50 (IGROV1 ovarian): 20.1 nM
- TGI (IGROV1 ovarian): 346 nM
- GI50 (SK-MEL-5 melanoma): 29.5 nM
- TGI (SK-MEL-5 melanoma): 150 nM
- GI50 (OVCAR-4 ovarian): 34.9 nM
- TGI (OVCAR-4 ovarian): 706 nM
- GI50 (M14 melanoma): 22.2 nM
- TGI (M14 melanoma): 81.2 nM
- GI50 (MALME-3M melanoma): 35.9 nM
- TGI (MALME-3M melanoma): 114 nM
- GI50 (SK-OV-3 ovarian): 73 nM
- TGI (SK-OV-3 ovarian): 2380 nM
- GI50 (SK-MEL-2 melanoma): 21 nM
- TGI (SK-MEL-2 melanoma): 69.2 nM
- GI50 (T-47D breast): 33.1 nM
- TGI (T-47D breast): 2010 nM
- GI50 (MCF7 breast): 20.6 nM
- TGI (MCF7 breast): 1150 nM
- GI50 (MDA-MB-231 breast): 23.3 nM
- TGI (MDA-MB-231 breast): 141 nM
- GI50 (SF-539 CNS): < 11.8 nM
- TGI (SF-539 CNS): 60.8 nM
- GI50 (UACC-62 melanoma): 13.6 nM
- TGI (UACC-62 melanoma): 70.1 nM
- GI50 (HOP-92 NSCLC): 15.2 nM
- TGI (HOP-92 NSCLC): 60.3 nM
- GI50 (SR leukemia): < 10 nM
- TGI (SR leukemia): 5470 nM
- GI50 (NCI-H522 lung): 22.1 nM
- TGI (NCI-H522 lung): 166 nM
- GI50 (SF-268 CNS): 17.9 nM
- TGI (SF-268 CNS): 104 nM
- GI50 (LOX IMVI melanoma): < 10 nM
- TGI (LOX IMVI melanoma): 140 nM
- GI50 (BT-549 breast): 16.5 nM
- TGI (BT-549 breast): 97.9 nM
- GI50 (NCI/ADR-RES ovarian): 32.8 nM
- TGI (NCI/ADR-RES ovarian): 1500 nM
- GI50 (U251 CNS): < 11.9 nM
- TGI (U251 CNS): 1330 nM
- GI50 (K-562 leukemia): 16.7 nM
- TGI (K-562 leukemia): 1520 nM
- GI50 (PC-3 prostate): 14.7 nM
- TGI (PC-3 prostate): 276 nM
- GI50 (OVCAR-8 ovarian): 21.3 nM
- TGI (OVCAR-8 ovarian): 1680 nM
- GI50 (RXF 393 renal): < 10 nM
- TGI (RXF 393 renal): < 16.8 nM
- GI50 (RPMI-8226 leukemia): 281 nM
- TGI (RPMI-8226 leukemia): 885 nM
- GI50 (TK-10 renal): 39.9 nM
- TGI (TK-10 renal): 1010 nM
- GI50 (COLO 205 colon): < 10 nM
- TGI (COLO 205 colon): 83.7 nM
- GI50 (ACHN renal): 16.5 nM
- TGI (ACHN renal): 679 nM
- GI50 (HS 578T breast): < 15.6 nM
- TGI (HS 578T breast): 261 nM
- GI50 (CAKI-1 renal): < 10 nM
- TGI (CAKI-1 renal): 1010 nM
- GI50 (SW-620 colon): < 14.1 nM
- TGI (SW-620 colon): 1220 nM
- GI50 (SF-295 CNS): 17.2 nM
- TGI (SF-295 CNS): 62.8 nM
- GI50 (HCC-2998 colon): 27.6 nM
- TGI (HCC-2998 colon): 488 nM
- GI50 (786-0 renal): 24.7 nM
- TGI (786-0 renal): 1130 nM
- GI50 (MDA-MB-435): 23.7 nM
- TGI (MDA-MB-435): 719 nM
- GI50 (SNB-19 CNS): 15.2 nM
- TGI (SNB-19 CNS): 1770 nM
- GI50 (SN12C renal): 23.3 nM
- TGI (SN12C renal): 1100 nM
- GI50 (A549 NSCLC): 33.1 nM
- TGI (A549 NSCLC): 1150 nM
- GI50 (SNB-75 CNS): < 10.8 nM
- TGI (SNB-75 CNS): 30.2 nM
- GI50 (EKVX NSCLC): 25.9 nM
- TGI (EKVX NSCLC): 998 nM
- GI50 (HT29 colon): 28.6 nM
- TGI (HT29 colon): 638 nM
- GI50 (HL-60(TB) leukemia): < 14.1 nM
- TGI (HL-60(TB) leukemia): 66.6 nM
